pIC50: −log10 of the molar value. Values belong to the compound of their own block, whether it stands above or below them. Calls of active or inactive are those of the source. No cut-off for these calls is given here.
What was measured:
[1] = in vitro; conditions: human, RWPE2 cells
Description: Cytotoxicity against human RWPE2 cells assessed as inhibition of cell growth incubated for 48 hrs by MTT assay

[2] = tested on: MCF7; test: cells; assay type: functional, cell-based; conditions: Homo sapiens, MCF7, 48 h
Description: Cytotoxicity against human MCF7 cells assessed as inhibition of cell growth incubated for 48 hrs by MTT assay

[3] = tested on: HepG2; test: Cytotoxicity against human HepG2 cells assessed as inhibition of cell growth incubated for 48 hrs by MTT assay; assay type: functional, cell-based; conditions: HepG2, 48 h
[4] = tested on: PC-3; test: cells; assay type: functional, cell-based; conditions: Homo sapiens, PC-3, 48 h
Description: Cytotoxicity against human PC-3 cells assessed as inhibition of cell growth incubated for 48 hrs by MTT assay

[5] = Antioxidant activity assessed as DPPH radical scavenging activity incubated for 30 mins; assay type: functional
[6] = tested on: PC-3; test: Antitumor activity against human PC-3 cells xenografted in mouse assessed as decrease in tumor mass at 5.2 mg/kg,ip administration; assay type: functional; design: scale not given: the % may be the effect or the level left
[7] = tested on: PC-3; test: Antitumor activity against human PC-3 cells xenografted in mouse assessed as decrease in AST level at 5.2 mg/kg,ip administration (reference value: 85.38 +/- 1.59 I/U); assay type: functional
[8] = tested on: PC-3; test: Antitumor activity against human PC-3 cells xenografted in mouse assessed as increase in total protein level at 5.2 mg/kg,ip administration (reference value: 4.01 +/- 0.27 g/dl); assay type: functional
[9] = tested on: PC-3; test: Antitumor activity against human PC-3 cells xenografted in mouse assessed as decrease in WBC count at 5.2 mg/kg,ip administration (reference value: 4.98 +/- 0.87 10^3/microL); assay type: functional
[10] = tested on: PC-3; test: Antitumor activity against human PC-3 cells xenografted in mouse assessed as increase in RBC count at 5.2 mg/kg,ip administration (reference value: 2.34 +/- 0.57 10^6/microL); assay type: functional
[11] = tested on: PC-3; test: Antitumor activity against human PC-3 cells xenografted in mouse assessed as decrease in tumor volume at 5.2 mg/kg,ip administration; assay type: functional
[12] = tested on: PC-3; test: Antitumor activity against human PC-3 cells xenografted in mouse assessed as increase in hemoglobin level at 5.2 mg/kg,ip administration (reference value: 2.94 +/- 0.54 g/dl); assay type: functional
[13] = tested on: PC-3; test: Antitumor activity against human PC-3 cells xenografted in mouse assessed as decrease in ALT level at 5.2 mg/kg,ip administration (reference value: 81.25 +/- 1.69 I/U); assay type: functional
[14] = tested on: PC-3; test: Induction of apoptosis in human PC-3 cells assessed as nuclear condensation at 0.017 uM incubated for 48 hrs by DAPI-staining based confocal microscopic analysis; assay type: functional, cell-based
[15] = tested on: PC-3; test: Antitumor activity against human PC-3 cells xenografted in mouse assessed as tumor growth inhibition at 4.2 mg/kg,ip administration; assay type: functional; conditions: read-out: TGI
[16] = tested on: PC-3; test: Induction of apoptosis in human PC-3 cells assessed as fold change in p53 gene expression at 0.017 uM incubated for 48 hrs by RT-PCR analysis; assay type: functional
[17] = Antioxidant activity assessed as DPPH radical scavenging activity at 100 uM incubated for 30 mins relative to control; assay type: functional
[18] = tested on: PC-3; test: Induction of cell cycle arrest in human PC-3 cells assessed as accumulation of cells at PreG1-phase at 0.017 uM incubated for 48 hrs by Annexin V-FITC and PI staining based flow cytometric analysis (reference value: 1.37 %); assay type: functional
[19] = tested on: PC-3; test: Induction of apoptosis in human PC-3 cells assessed as early apoptotic cells at 0.017 uM incubated for 48 hrs by Annexin V-FITC and PI staining based flow cytometric analysis (reference value: 0.27 %); assay type: functional
[20] = tested on: PC-3; test: Induction of cell cycle arrest in human PC-3 cells assessed as accumulation of cells at G2/M-phase at 0.017 uM incubated for 48 hrs by Annexin V-FITC and PI staining based flow cytometric analysis (reference value: 13.19 %); assay type: functional
[21] = tested on: PC-3; test: Induction of apoptosis in human PC-3 cells assessed as fold increase in apoptosis at 0.017 uM incubated for 48 hrs by DAPI-staining based confocal microscopic analysis; assay type: functional
[22] = tested on: PC-3; test: Induction of apoptosis in human PC-3 cells assessed as fold change in PUMA gene expression at 0.017 uM incubated for 48 hrs by RT-PCR analysis; assay type: functional
[23] = tested on: PC-3; test: Induction of apoptosis in human PC-3 cells assessed as necrotic cells at 0.017 uM incubated for 48 hrs by Annexin V-FITC and PI staining based flow cytometric analysis (reference value: 0.77 %); assay type: functional
[24] = tested on: PC-3; test: Induction of apoptosis in human PC-3 cells assessed as late apoptotic cells at 0.017 uM incubated for 48 hrs by Annexin V-FITC and PI staining based flow cytometric analysis (reference value: 0.18 %); assay type: functional
[25] = tested on: PC-3; test: Antitumor activity against human PC-3 cells xenografted in mouse assessed as decrease in tumor mass at 4.2 mg/kg,ip administration; assay type: functional
[26] = tested on: PC-3; test: Induction of apoptosis in human PC-3 cells assessed as fold change in caspase-9 gene expression at 0.017 uM incubated for 48 hrs by RT-PCR analysis; assay type: functional
[27] = tested on: PC-3; test: Antitumor activity against human PC-3 cells xenografted in mouse assessed as decrease in body weight loss at 4.2 mg/kg,ip administration; assay type: functional, organism-based
[28] = tested on: PC-3; test: Antitumor activity against human PC-3 cells xenografted in mouse assessed as decrease in liver damage at 5.2 mg/kg,ip administration by; assay type: functional, organism-based
[29] = tested on: PC-3; test: Antitumor activity against human PC-3 cells xenografted in mouse assessed as decrease in tumor volume at 4.2 mg/kg,ip administration; assay type: functional
[30] = Toxicity in mouse xenografted with human PC-3 cells assessed as lethal dose at ip administration; assay type: organism-based; conditions: in vivo
[31] = tested on: PC-3; test: Induction of apoptosis in human PC-3 cells assessed as fold change in caspase-3 gene expression at 0.017 uM incubated for 48 hrs by RT-PCR analysis; assay type: functional
[32] = tested on: PC-3; test: Induction of apoptosis in human PC-3 cells assessed as fold decrease in JAK2 gene expression at 0.017 uM incubated for 48 hrs by RT-PCR analysis; assay type: functional
[33] = tested on: PC-3; test: Induction of cell cycle arrest in human PC-3 cells assessed as accumulation of cells at G1-phase at 0.017 uM incubated for 48 hrs by Annexin V-FITC and PI staining based flow cytometric analysis (reference value: 44.73 %); assay type: functional
[34] = tested on: PC-3; test: Induction of apoptosis in human PC-3 cells assessed as fold decrease in STAT3 gene expression at 0.017 uM incubated for 48 hrs by RT-PCR analysis; assay type: functional
[35] = tested on: PC-3; test: Antitumor activity against human PC-3 cells xenografted in mouse assessed as hepatocyte balloon degeneration at 5.2 mg/kg,ip administration by; assay type: functional, organism-based
[36] = tested on: PC-3; test: Antitumor activity against human PC-3 cells xenografted in mouse assessed as hepatocyte hydropic degeneration at 5.2 mg/kg,ip administration by; assay type: functional, organism-based
[37] = tested on: PC-3; test: Induction of cell cycle arrest in human PC-3 cells assessed as accumulation of cells at S-phase at 0.017 uM incubated for 48 hrs by Annexin V-FITC and PI staining based flow cytometric analysis (reference value: 42.08 %); assay type: functional
[38] = tested on: PC-3; test: Induction of apoptosis in human PC-3 cells assessed as fold change in caspase-8 gene expression at 0.017 uM incubated for 48 hrs by RT-PCR analysis; assay type: functional
[39] = tested on: PC-3; test: Induction of apoptosis in human PC-3 cells assessed as fold decrease in BCL-2 gene expression at 0.017 uM incubated for 48 hrs by RT-PCR analysis; assay type: functional
[40] = tested on: PC-3; test: Induction of apoptosis in human PC-3 cells at 0.017 uM incubated for 48 hrs by Annexin V-FITC and PI staining based flow cytometric analysis relative to control; assay type: functional
[41] = biological target: Serine/threonine-protein kinase pim-1 (Homo sapiens, UniProt P11309); test: Inhibition of PIM-1 (unknown origin)
Chain of Serine/threonine-protein kinase pim-1 (P11309 whole entry): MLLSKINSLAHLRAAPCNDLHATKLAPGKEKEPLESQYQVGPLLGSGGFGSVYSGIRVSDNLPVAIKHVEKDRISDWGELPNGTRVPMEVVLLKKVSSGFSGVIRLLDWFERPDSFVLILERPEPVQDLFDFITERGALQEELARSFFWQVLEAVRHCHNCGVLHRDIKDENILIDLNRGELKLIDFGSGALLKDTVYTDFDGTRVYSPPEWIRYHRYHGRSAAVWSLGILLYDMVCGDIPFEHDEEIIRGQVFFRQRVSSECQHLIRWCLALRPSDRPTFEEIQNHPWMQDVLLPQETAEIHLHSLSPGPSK

- IC50 at 48 h [1]: 42.6 µM
- pIC50 [2]: 5.08
- pIC50 [4]: 4.90
Compound: c1ccc(-c2cc(-c3nnc(-c4ccccc4)o3)ccn2)cc1
- pIC50 [3]: 4.86

- pIC50 [2]: 4.59
- pIC50 [4]: 5.03
Compound: COc1ccc(-c2nnc(-c3ccnc(-c4ccc(C(F)(F)F)cc4)c3)o2)cc1
- pIC50 [3]: 5.49

- pIC50 [2]: 4.91
- pIC50 [4]: 4.88
Compound: COc1cccc(-c2nnc(-c3ccnc(-c4ccc(C(F)(F)F)cc4)c3)o2)c1
- pIC50 [3]: ≤ 4.30

- IC50 at 48 h [1]: 45.7 µM
- pIC50 [2]: 4.86
- pIC50 [4]: 6.09
Compound: Fc1ccc(-c2nnc(-c3ccnc(-c4ccc(C(F)(F)F)cc4)c3)o2)cc1
- pIC50 [3]: 5.14
- Activity [5]: Dose-Dependent Effect

- IC50 at 48 h [1]: 31.9 µM
- pIC50 [2]: 4.15
- pIC50 [4]: 6.12
Compound: Fc1cccc(-c2nnc(-c3ccnc(-c4ccc(C(F)(F)F)cc4)c3)o2)c1
- pIC50 [3]: 5.22
- Activity [5]: Dose-Dependent Effect

Compound: CN[C@@H]1C[C@H]2O[C@@](C)([C@@H]1OC)n1c3ccccc3c3c4c(c5c6ccccc6n2c5c31)C(=O)NC4 [STAUROSPORINE]
- Activity [6]: 20%
- Activity [7]: 47.38 U/L
- Activity [8]: 5.39 g/dL
- Activity [9]: 2.81 10^3 /uL
- Activity [10]: 4.95 10^6 /uL
- pIC50 [3]: 5.29
- Activity [11]: 52.9 mm3
- Activity [12]: 6.52 g/dL
- Activity [13]: 50.4 U/L

- IC50 at 48 h [1]: ≥ 50 µM
- pIC50 [2]: 5.01
- pIC50 [4]: 6.25
Compound: COc1ccc(-c2nnc(-c3ccnc(-c4ccccc4)c3)o2)cc1
- pIC50 [3]: 5.15
- Activity [5]: Dose-Dependent Effect

- pIC50 [2]: 5.02
- pIC50 [4]: ≤ 4.30
Compound: FC(F)(F)c1ccc(-c2cc(-c3nnc(-c4ccccc4)o3)ccn2)cc1
- pIC50 [3]: 5.39

- pIC50 [2]: 4.69
- pIC50 [4]: 5.70
Compound: COc1ccc(-c2nnc(-c3ccnc(-c4ccccc4)c3)o2)c(F)c1
- pIC50 [3]: 4.86

Compound: Clc1cccc(-c2nnc(-c3ccnc(-c4ccccc4)c3)o2)c1
- Activity [14]: Active
- inhibition in vivo at 4.2 mg/kg [15]: 64.2%
- fold change (FC) [16]: 6.58
- Activity [17]: 94%
- Activity [18]: 26.44%
- Activity [19]: 2.09%
- Activity [20]: 7.46%
- fold change (FC) [21]: 37.2
- fold change (FC) [22]: 3.85
- Activity [23]: 11.9%
- Activity [7]: 48.9 U/L
- Activity [24]: 17.35%
- Activity [25]: 89.4 mg
- fold change (FC) [26]: 8.67
- Activity [27]: Active
- IC50 at 48 h [1]: 35.4 µM
- Activity [8]: 5.74 g/dL
- Activity [28]: Active
- Activity [29]: 34.1 mm3
- Activity [9]: 2.87 10^3 /uL
- LD50 [30]: 4.2 mg/kg
- Activity [10]: 4.02 10^6 /uL
- pIC50 [2]: 5.27
- fold change (FC) [31]: 6.98
- fold change (FC) [32]: 0.52
- Activity [33]: 47.36%
- fold change (FC) [34]: 0.48
- Activity [35]: Active
- Activity [36]: Active
- pIC50 [3]: 6.89
- Activity [37]: 45.18%
- fold change (FC) [38]: 3.25
- fold change (FC) [39]: 0.45
- Activity [12]: 6.89 g/dL
- Activity [13]: 49.8 U/L
- Activity [5]: Dose-Dependent Effect
- Activity [40]: 19.44%
- pIC50 [41]: 4.77
- pIC50 [4]: 7.80

Compound: Cc1c(C)c2c(c(C)c1O)CCC(C)(C(=O)O)O2 (configuration not stated)
- Activity [17]: 96%

- pIC50 [2]: 5.42
- pIC50 [4]: 5.21
Compound: Fc1cccc(-c2nnc(-c3ccnc(-c4ccccc4)c3)o2)c1
- pIC50 [3]: 5.37

- pIC50 [2]: 6.12
- pIC50 [4]: 5.49
Compound: COc1cccc(-c2nnc(-c3ccnc(-c4ccccc4)c3)o2)c1
- pIC50 [3]: ≤ 4.30

- pIC50 [2]: 5.00
- pIC50 [4]: ≤ 4.30
Compound: FC(F)(F)c1ccc(-c2cc(-c3nnc(-c4cccc(Cl)c4)o3)ccn2)cc1
- pIC50 [3]: 5.49

- pIC50 [2]: 4.72
- pIC50 [4]: 5.64
Compound: Fc1ccc(-c2nnc(-c3ccnc(-c4ccccc4)c3)o2)cc1
- pIC50 [3]: ≤ 4.30
